Results: paper PMC8330742, “New benzothieno[2,3-c]pyridines as non-steroidal CYP17 inhibitors: design, synthesis, anticancer screening, apoptosis induction, and in silico ADME profile studies” (Journal of Enzyme Inhibition and Medicinal Chemistry, 2021)

Columns and labels:
ACHN = experiment: NCI-60 SRB screen; assay type: cell-based; details: Homo sapiens, single dose 10^−5 M, Renal cancer, read-out: Growth inhibition (%)
SR = experiment: NCI-60 SRB screen; assay type: cell-based; details: Homo sapiens, single dose 10^−5 M, Leukaemia, read-out: Growth inhibition (%)
HCT-15 = experiment: NCI-60 SRB screen; assay type: cell-based, human; details: Homo sapiens; single dose 10^−5 M; HCT-15, Colon cancer; read-out: Growth inhibition (%)
HOP-62 = experiment: NCI-60 SRB screen; assay type: cell-based, human; details: Homo sapiens; single dose 10^−5 M; HOP-62, Non-small cell lung carcinoma; read-out: Growth inhibition (%)
NCI-H460 = experiment: NCI-60 SRB screen; assay type: cell-based, human; details: Homo sapiens; single dose 10^−5 M; NCI-H460, Non-small cell lung carcinoma; read-out: Growth inhibition (%)
LOX IMVI = experiment: NCI-60 SRB screen; assay type: cell-based, human; details: Homo sapiens, single dose 10^−5 M, Melanoma, read-out: Growth inhibition (%)
KM12 = experiment: NCI-60 SRB screen; assay type: cell-based, human; details: Homo sapiens; single dose 10^−5 M; KM12, Colon cancer; read-out: Growth inhibition (%)
COLO 205 = experiment: NCI-60 SRB screen; assay type: cell-based, human; details: Homo sapiens; single dose 10^−5 M; COLO 205, Colon cancer; read-out: Growth inhibition (%)
EKVX = experiment: NCI-60 SRB screen; assay type: cell-based, human; details: Homo sapiens, single dose 10^−5 M, Non-small cell lung carcinoma, read-out: Growth inhibition (%)
OVCAR-3 = experiment: NCI-60 SRB screen; assay type: cell-based, human; details: Homo sapiens; single dose 10^−5 M; OVCAR-3, Ovarian cancer; read-out: Growth inhibition (%)
SK-MEL-5 = experiment: NCI-60 SRB screen; assay type: cell-based, human; details: Homo sapiens; single dose 10^−5 M; SK-MEL-5, Melanoma; read-out: Growth inhibition (%)
A549/ATCC = experiment: NCI-60 SRB screen; assay type: cell-based, human; details: Homo sapiens, single dose 10^−5 M, Non-small cell lung carcinoma, read-out: Growth inhibition (%)
K-562 = experiment: NCI-60 SRB screen; assay type: cell-based, human; details: Homo sapiens, K562; single dose 10^−5 M; K-562, Leukaemia; read-out: Growth inhibition (%)
NCI-H322M = experiment: NCI-60 SRB screen; assay type: cell-based, human; details: Homo sapiens, single dose 10^−5 M, Non-small cell lung carcinoma, read-out: Growth inhibition (%)
HCC-2998 = experiment: NCI-60 SRB screen; assay type: cell-based, human; details: Homo sapiens; single dose 10^−5 M; HCC-2998, Colon cancer; read-out: Growth inhibition (%)
HOP-92 = experiment: NCI-60 SRB screen; assay type: cell-based, human; details: Homo sapiens; single dose 10^−5 M; HOP-92, Non-small cell lung carcinoma; read-out: Growth inhibition (%)
OVCAR-8 = experiment: NCI-60 SRB screen; assay type: cell-based, human; details: Homo sapiens; single dose 10^−5 M; OVCAR-8, Ovarian cancer; read-out: Growth inhibition (%)
SK-MEL-28 = experiment: NCI-60 SRB screen; assay type: cell-based; details: Homo sapiens; single dose 10^−5 M; SK-MEL-28, Melanoma; read-out: Growth inhibition (%)
SK-MEL-2 = experiment: NCI-60 SRB screen; assay type: cell-based, human; details: Homo sapiens; single dose 10^−5 M; SK-MEL-2, Melanoma; read-out: Growth inhibition (%)
HL-60(TB) = experiment: NCI-60 SRB screen; assay type: cell-based, human; details: Homo sapiens; single dose 10^−5 M; HL-60(TB), Leukaemia; read-out: Growth inhibition (%)
SW-620 = experiment: NCI-60 SRB screen; assay type: cell-based; details: Homo sapiens; single dose 10^−5 M; SW-620, Colon cancer; read-out: Growth inhibition (%)
SF-295 = experiment: NCI-60 SRB screen; assay type: cell-based, human; details: Homo sapiens; single dose 10^−5 M; SF-295, CNS cancer; read-out: Growth inhibition (%)
HCT-116 = experiment: NCI-60 SRB screen; assay type: cell-based, human; details: Homo sapiens; single dose 10^−5 M; HCT-116, Colon cancer; read-out: Growth inhibition (%)
UACC-257 = experiment: NCI-60 SRB screen; assay type: cell-based, human; details: Homo sapiens; single dose 10^−5 M; UACC-257, Melanoma; read-out: Growth inhibition (%)
MOLT-4 = experiment: NCI-60 SRB screen; assay type: cell-based; details: Homo sapiens; single dose 10^−5 M; MOLT-4, Leukaemia; read-out: Growth inhibition (%)
NCI-H226 = experiment: NCI-60 SRB screen; assay type: cell-based, human; details: Homo sapiens; single dose 10^−5 M; NCI-H226, Non-small cell lung carcinoma; read-out: Growth inhibition (%)
SF-268 = experiment: NCI-60 SRB screen; assay type: cell-based, human; details: Homo sapiens; single dose 10^−5 M; SF-268, CNS cancer; read-out: Growth inhibition (%)
MDA-MB-435 = experiment: NCI-60 SRB screen; assay type: cell-based; details: Homo sapiens, MDA-MB-435, read-out: Growth inhibition (%)
OVCAR-4 = experiment: NCI-60 SRB screen; assay type: cell-based, human; details: Homo sapiens; single dose 10^−5 M; OVCAR-4, Ovarian cancer; read-out: Growth inhibition (%)
UO-31 = experiment: NCI-60 SRB screen; assay type: cell-based, human; details: Homo sapiens; single dose 10^−5 M; UO-31, Renal cancer; read-out: Growth inhibition (%)
TK-10 = experiment: NCI-60 SRB screen; assay type: cell-based, human; details: Homo sapiens; single dose 10^−5 M; TK-10, Renal cancer; read-out: Growth inhibition (%)
CAKI-1 = experiment: NCI-60 SRB screen; assay type: cell-based, human; details: Homo sapiens; single dose 10^−5 M; CAKI-1, Renal cancer; read-out: Growth inhibition (%)
CCRF-CEM = experiment: NCI-60 SRB screen; assay type: cell-based; details: Homo sapiens, single dose 10^−5 M, Leukaemia, read-out: Growth inhibition (%)
IGROV1 = experiment: NCI-60 SRB screen; assay type: cell-based, human; details: Homo sapiens, IGROV-1; single dose 10^−5 M; IGROV1, Ovarian cancer; read-out: Growth inhibition (%)
SN12C = experiment: NCI-60 SRB screen; assay type: cell-based, human; details: Homo sapiens, SN12C; single dose 10^−5 M; SN 12 C, Renal cancer; read-out: Growth inhibition (%)
M14 = experiment: NCI-60 SRB screen; assay type: cell-based, human; details: Homo sapiens; single dose 10^−5 M; M14, Melanoma; read-out: Growth inhibition (%)
NCI-H522 = experiment: NCI-60 SRB screen; assay type: cell-based, human; details: Homo sapiens; single dose 10^−5 M; NCI-H522, Non-small cell lung carcinoma; read-out: Growth inhibition (%)
NCI-H23 = experiment: NCI-60 SRB screen; assay type: cell-based, human; details: Homo sapiens; single dose 10^−5 M; NCI-H23, Non-small cell lung carcinoma; read-out: Growth inhibition (%)
RXF 393 = experiment: NCI-60 SRB screen; assay type: cell-based, human; details: Homo sapiens; single dose 10^−5 M; RXF 393, Renal cancer; read-out: Growth inhibition (%)
UACC-62 = experiment: NCI-60 SRB screen; assay type: cell-based, human; details: Homo sapiens; single dose 10^−5 M; UACC-62, Melanoma; read-out: Growth inhibition (%)
SK-OV-3 = experiment: NCI-60 SRB screen; assay type: cell-based, human; details: Homo sapiens; single dose 10^−5 M; SK-OV-3, Ovarian cancer; read-out: Growth inhibition (%)
[1] = test system: panel of 60 cancer cell lines; experiment: NCI-60 SRB screen, mean or range over the panel; assay type: cell-based, human; details: Homo sapiens; mean over the cell lines; single dose 10^−5 M; read-out: Mean growth inhibition (%)
NCI/ADR-RES = experiment: NCI-60 SRB screen; assay type: cell-based, human; details: Homo sapiens, single dose 10^−5 M, Ovarian cancer, read-out: Growth inhibition (%)
786-0 = experiment: NCI-60 SRB screen; assay type: cell-based; details: Homo sapiens; single dose 10^−5 M; 786-0, Renal cancer; read-out: Growth inhibition (%)

N#CC1=C(Cl)NC(c2cccc([N+](=O)[O-])c2)c2sc3c(F)cccc3c21 (centres unmarked) [Compound 7b, 3-Chloro-4-cyano-8-fluoro-1-(3-nitrophenyl)-1,2-dihydro[1]benzothieno [2,3-c]pyridine]
inhibition at 10 µM (ACHN): 4.44%
inhibition at 10 µM (SR): 15.9%
inhibition at 10 µM (HCT-15): -7.25%
inhibition at 10 µM (HOP-62): 9.67%
inhibition at 10 µM (NCI-H460): 2.14%
inhibition at 10 µM (LOX IMVI): 1.46%
inhibition at 10 µM (KM12): -0.12%
inhibition at 10 µM (COLO 205): -14.6%
inhibition at 10 µM (EKVX): -1.36%
inhibition at 10 µM (OVCAR-3): -1.67%
inhibition at 10 µM (SK-MEL-5): -20.1%
inhibition at 10 µM (A549/ATCC): -10.1%
inhibition at 10 µM (K-562): 8.8%
inhibition at 10 µM (NCI-H322M): -3.17%
inhibition at 10 µM (HCC-2998): -18.2%
inhibition at 10 µM (HOP-92): 10.4%
inhibition at 10 µM (OVCAR-8): -4.49%
inhibition at 10 µM (SK-MEL-28): -11.2%
inhibition at 10 µM (SK-MEL-2): -2.07%
inhibition at 10 µM (HL-60(TB)): 1.47%
inhibition at 10 µM (SW-620): 3.78%
inhibition at 10 µM (SF-295): -4.69%
inhibition at 10 µM (HCT-116): 11.7%
inhibition at 10 µM (UACC-257): -9.77%
inhibition at 10 µM (MOLT-4): 7.93%
inhibition at 10 µM (NCI-H226): 9.35%
inhibition at 10 µM (SF-268): 6.82%
inhibition at 10 µM (MDA-MB-435): -8.18%
inhibition at 10 µM (OVCAR-4): -3.81%
inhibition at 10 µM (UO-31): 32.5%
inhibition at 10 µM (TK-10): -53.8%
inhibition at 10 µM (CAKI-1): 19.8%
inhibition at 10 µM (CCRF-CEM): 3.22%
inhibition at 10 µM (IGROV1): 15.6%
inhibition at 10 µM (SN12C): 4.43%
inhibition at 10 µM (M14): -5.17%
inhibition at 10 µM (NCI-H522): -1.38%
inhibition at 10 µM (NCI-H23): 4.25%
inhibition at 10 µM (RXF 393): -15.8%
inhibition at 10 µM (UACC-62): 8.84%
inhibition at 10 µM (SK-OV-3): 2.24%
inhibition at 10 µM [1]: 2.14%
inhibition at 10 µM (NCI/ADR-RES): 1.73%
inhibition at 10 µM (786-0): -13.5%
